Source: ChEMBL document CHEMBL5104183, “Discovery of Highly Potent and Selective Matrix Metalloproteinase-7 Inhibitors by Hybridizing the S1' Subsite Binder with Short Peptides” (J Med Chem, 2022)
pIC50: −log10 of the molar value. *1 amine or outer side, *2 acyl side, *3 side chain or, on linkers, in order; H or OH if unused. Where a SMILES comes first, the peptide text is derived from it. [ ]: non-standard residue; d: D form. The star is where a group is joined. Benzenesulfonyl(4-Cl,3-CF3) = O=S(=O)(c1ccc(Cl)c(C(F)(F)F)c1)*; γGlu = O=C(O)[C@H](CCC(=O)[*:2])N[*:1]; β3hP = O=C(O)C[C@@H]1CCCN1

How the values were obtained:
[1] = molecular target: T1, Matrilysin (Homo sapiens, UniProt P09237); test: Inhibition of human recombinant MMP-7 (Leu18 to Lys267 residues) using MOCAc-Pro-Leu-Gly-Leu-A2pr(Dnp)-Ala-Arg-NH2 as fluorogenic substrate preincubated for 15 mins followed by substrate addition by fluorescence based analysis
T1 sequence (P09237 whole entry): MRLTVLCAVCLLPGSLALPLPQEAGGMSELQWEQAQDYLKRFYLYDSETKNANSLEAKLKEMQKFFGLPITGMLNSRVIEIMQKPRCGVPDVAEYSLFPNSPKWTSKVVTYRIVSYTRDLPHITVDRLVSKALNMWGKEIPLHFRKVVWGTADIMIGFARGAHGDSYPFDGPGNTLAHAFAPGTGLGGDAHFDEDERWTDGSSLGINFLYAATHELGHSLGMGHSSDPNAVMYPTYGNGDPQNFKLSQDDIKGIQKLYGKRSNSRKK

[2] = molecular target: 72 kDa type IV collagenase (Homo sapiens, UniProt P08253); test: Inhibition of human recombinant MMP-2 ( Ile34 to Cys660 residues) using MOCAc-Pro-Leu-Gly-Leu-A2pr(Dnp)-Ala-Arg-NH2 as fluorogenic substrate preincubated for 15 mins followed by substrate addition by fluorescence based analysis
Chain of 72 kDa type IV collagenase (P08253 whole entry): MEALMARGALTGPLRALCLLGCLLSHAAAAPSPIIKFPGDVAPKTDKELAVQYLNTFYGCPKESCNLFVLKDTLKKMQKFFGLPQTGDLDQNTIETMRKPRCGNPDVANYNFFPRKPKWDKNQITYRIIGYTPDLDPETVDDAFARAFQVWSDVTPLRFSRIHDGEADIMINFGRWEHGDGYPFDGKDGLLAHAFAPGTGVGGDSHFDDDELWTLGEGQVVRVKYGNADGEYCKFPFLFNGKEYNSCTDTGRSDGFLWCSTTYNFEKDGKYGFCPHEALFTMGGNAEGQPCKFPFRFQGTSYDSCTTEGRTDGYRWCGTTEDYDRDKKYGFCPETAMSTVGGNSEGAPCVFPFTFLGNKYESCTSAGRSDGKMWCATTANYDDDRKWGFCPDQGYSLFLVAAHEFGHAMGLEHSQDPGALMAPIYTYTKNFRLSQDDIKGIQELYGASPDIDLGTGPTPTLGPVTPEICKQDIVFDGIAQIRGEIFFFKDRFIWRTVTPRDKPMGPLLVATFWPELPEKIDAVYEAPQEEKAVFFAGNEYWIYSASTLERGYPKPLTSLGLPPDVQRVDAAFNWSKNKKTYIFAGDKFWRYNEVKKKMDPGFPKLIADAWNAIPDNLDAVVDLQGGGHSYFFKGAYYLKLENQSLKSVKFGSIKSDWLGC

[3] = molecular target: T2, Interstitial collagenase (Homo sapiens, UniProt P03956); test: Inhibition of human recombinant MMP-1 (Phe20 to Asn469 residue) using MOCAc-Lys-Pro-Leu-Gly-Leu-A2pr(Dnp)-Ala-Arg-NH2 as fluorogenic substrate preincubated for 15 mins followed by substrate addition by fluorescence based analysis
T2 sequence (P03956 whole entry): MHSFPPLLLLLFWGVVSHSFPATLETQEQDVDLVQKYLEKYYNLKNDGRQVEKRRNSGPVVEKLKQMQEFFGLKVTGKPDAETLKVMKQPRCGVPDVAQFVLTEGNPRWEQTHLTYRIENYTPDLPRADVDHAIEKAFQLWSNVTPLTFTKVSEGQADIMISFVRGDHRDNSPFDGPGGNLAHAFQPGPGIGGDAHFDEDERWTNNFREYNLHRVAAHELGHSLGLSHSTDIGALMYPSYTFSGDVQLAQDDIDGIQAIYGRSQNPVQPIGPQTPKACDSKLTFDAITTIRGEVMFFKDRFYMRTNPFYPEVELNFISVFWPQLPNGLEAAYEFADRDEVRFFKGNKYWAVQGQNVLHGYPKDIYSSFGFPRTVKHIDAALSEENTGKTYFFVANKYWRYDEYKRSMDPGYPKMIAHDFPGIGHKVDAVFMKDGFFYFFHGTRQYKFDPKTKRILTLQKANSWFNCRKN

[4] = molecular target: Stromelysin-1 (Homo sapiens, UniProt P08254); test: Inhibition of human recombinant MMP-3 (Tyr18 to Cys477 residues ) using MOCAc-Arg-Pro-Lys-Pro-Val-Glu-Nva-Trp-Arg-Lys(Dnp)-NH2 as fluorogenic substrate preincubated for 15 mins followed by substrate addition by fluorescence based analysis
Chain of Stromelysin-1 (P08254 whole entry): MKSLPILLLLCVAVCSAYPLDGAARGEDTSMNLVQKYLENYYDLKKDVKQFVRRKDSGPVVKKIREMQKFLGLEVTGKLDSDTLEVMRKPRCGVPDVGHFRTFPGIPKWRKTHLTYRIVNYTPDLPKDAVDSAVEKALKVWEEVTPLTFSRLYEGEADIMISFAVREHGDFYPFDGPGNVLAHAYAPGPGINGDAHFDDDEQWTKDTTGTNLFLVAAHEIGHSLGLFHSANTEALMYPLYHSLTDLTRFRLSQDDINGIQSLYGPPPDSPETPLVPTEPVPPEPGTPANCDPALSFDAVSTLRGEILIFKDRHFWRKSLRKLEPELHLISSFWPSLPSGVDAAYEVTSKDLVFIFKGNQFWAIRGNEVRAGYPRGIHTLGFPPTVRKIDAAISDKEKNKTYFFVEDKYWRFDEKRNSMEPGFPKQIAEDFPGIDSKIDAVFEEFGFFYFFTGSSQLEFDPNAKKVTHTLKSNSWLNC

[5] = molecular target: Neutrophil collagenase (Homo sapiens, UniProt P22894); test: Inhibition of human recombinant MMP-8 (Phe21 to Gly467 residues) using MOCAc-Pro-Leu-Gly-Leu-A2pr(Dnp)-Ala-Arg-NH2 as fluorogenic substrate preincubated for 15 mins followed by substrate addition by fluorescence based analysis
Chain of Neutrophil collagenase (P22894 whole entry): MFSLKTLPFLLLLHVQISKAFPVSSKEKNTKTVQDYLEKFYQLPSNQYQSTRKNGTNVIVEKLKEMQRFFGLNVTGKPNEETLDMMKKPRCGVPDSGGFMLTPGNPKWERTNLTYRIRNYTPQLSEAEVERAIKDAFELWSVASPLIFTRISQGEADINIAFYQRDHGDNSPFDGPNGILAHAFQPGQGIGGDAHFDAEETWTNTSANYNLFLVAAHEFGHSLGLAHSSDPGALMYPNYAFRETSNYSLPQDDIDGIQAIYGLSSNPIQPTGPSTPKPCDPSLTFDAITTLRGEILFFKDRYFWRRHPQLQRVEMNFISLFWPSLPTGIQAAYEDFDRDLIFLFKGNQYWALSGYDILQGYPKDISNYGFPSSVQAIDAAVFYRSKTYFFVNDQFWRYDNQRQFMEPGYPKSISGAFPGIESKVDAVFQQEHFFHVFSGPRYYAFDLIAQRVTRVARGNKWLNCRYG

[6] = molecular target: Matrix metalloproteinase-9 (Homo sapiens, UniProt P14780); test: Inhibition of human recombinant MMP-9 (Ala20 to Asp707 residues) using MOCAc-Pro-Leu-Gly-Leu-A2pr(Dnp)-Ala-Arg-NH2 as fluorogenic substrate preincubated for 15 mins followed by substrate addition by fluorescence based analysis
Chain of Matrix metalloproteinase-9 (P14780 whole entry): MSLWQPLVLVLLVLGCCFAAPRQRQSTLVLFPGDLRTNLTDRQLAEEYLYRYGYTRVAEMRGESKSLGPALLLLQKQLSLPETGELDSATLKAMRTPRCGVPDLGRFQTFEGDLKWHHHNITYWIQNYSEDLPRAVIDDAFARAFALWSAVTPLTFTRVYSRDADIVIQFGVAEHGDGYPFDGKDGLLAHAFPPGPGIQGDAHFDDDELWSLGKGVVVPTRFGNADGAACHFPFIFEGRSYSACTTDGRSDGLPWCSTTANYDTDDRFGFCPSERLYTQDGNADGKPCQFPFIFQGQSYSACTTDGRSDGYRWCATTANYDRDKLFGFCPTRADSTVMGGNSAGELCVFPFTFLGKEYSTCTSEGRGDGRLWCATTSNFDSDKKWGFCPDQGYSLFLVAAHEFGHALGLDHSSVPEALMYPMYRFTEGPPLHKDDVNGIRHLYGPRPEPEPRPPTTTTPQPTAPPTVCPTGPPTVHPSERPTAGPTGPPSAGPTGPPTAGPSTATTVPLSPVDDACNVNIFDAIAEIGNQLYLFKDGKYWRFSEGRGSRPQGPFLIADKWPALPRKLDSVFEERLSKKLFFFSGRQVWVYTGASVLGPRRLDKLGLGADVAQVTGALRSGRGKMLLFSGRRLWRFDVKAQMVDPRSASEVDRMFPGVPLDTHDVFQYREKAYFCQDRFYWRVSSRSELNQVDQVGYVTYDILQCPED

[7] = molecular target: Macrophage metalloelastase (Homo sapiens, UniProt P39900); test: Inhibition of human recombinant MMP-12 (Leu17 to Cys470 residues) using MOCAc-Pro-Leu-Gly-Leu-A2pr(Dnp)-Ala-Arg-NH2 as fluorogenic substrate preincubated for 15 mins followed by substrate addition by fluorescence based analysis
Chain of Macrophage metalloelastase (P39900 whole entry): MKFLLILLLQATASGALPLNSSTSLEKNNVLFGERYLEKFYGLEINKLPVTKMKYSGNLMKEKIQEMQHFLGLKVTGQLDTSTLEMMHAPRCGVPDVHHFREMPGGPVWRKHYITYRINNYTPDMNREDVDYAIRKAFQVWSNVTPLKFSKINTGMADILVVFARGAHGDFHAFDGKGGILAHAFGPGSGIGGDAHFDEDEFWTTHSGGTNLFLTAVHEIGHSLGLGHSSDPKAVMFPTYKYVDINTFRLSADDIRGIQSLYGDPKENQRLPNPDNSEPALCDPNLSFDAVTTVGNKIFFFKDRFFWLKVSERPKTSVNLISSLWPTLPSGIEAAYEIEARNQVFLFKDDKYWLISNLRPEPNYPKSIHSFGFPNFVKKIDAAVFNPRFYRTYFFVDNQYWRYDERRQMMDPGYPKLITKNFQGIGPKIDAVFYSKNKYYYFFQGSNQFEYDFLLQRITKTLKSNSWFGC

[8] = molecular target: Collagenase 3 (Homo sapiens, UniProt P45452); test: Inhibition of human recombinant MMP-13 (Leu20 to Cys471 residues) using MOCAc-Pro-Leu-Gly-Leu-A2pr(Dnp)-Ala-Arg-NH2 as fluorogenic substrate preincubated for 15 mins followed by substrate addition by fluorescence based analysis
[9] = molecular target: Matrix metalloproteinase-14 (Homo sapiens, UniProt P50281); test: Inhibition of human recombinant C-terminal 10-His tagged MMP-14 ( Ala21 to Gly284 residues) using MOCAc-Lys-Pro-Leu-Gly-Leu-A2pr(Dnp)-Ala-Arg-NH2 as fluorogenic substrate preincubated for 15 mins followed by substrate addition by fluorescence based analysis
[10] = Stability in human liver microsomes at 1 uM incubated for 15 mins by liquid chromatography-mass spectrometry; assay type: ADME, Microsome; conditions: 0.25 h
[11] = Stability in human serum incubated for 4 hrs by liquid chromatography-tandem mass spectrometry; assay type: ADME, cell-free
[12] = organism: Homo sapiens; test: Selectivity index, ratio of IC50 for human recombinant MMP-12 to IC50 for human recombinant MMP-7
[13] = organism: Homo sapiens; test: Selectivity index, ratio of IC50 for human recombinant MMP-14 to IC50 for human recombinant MMP-7

SMILES	pIC50 [1]	pIC50 [2]	pIC50 [4]	pIC50 [5]	pIC50 [6]	pIC50 [7]	pIC50 [8]	pIC50 [9]	further results
CC(C)C[C@H](NC(=O)[C@H](C)NC(=O)CC[C@H](NS(=O)(=O)c1ccc(Cl)c(C(F)(F)F)c1)C(=O)O)C(=O)N[C@@H](C)C(N)=O	5.77								
O=C(O)[C@H](CCc1ccccc1)NS(=O)(=O)c1ccc(Cl)c(C(F)(F)F)c1	5.21	< 4.00	< 4.00	< 4.00	< 4.00	< 4.00	< 4.00	< 4.00	pIC50 [3]: < 4.00
CC(C)C[C@H](NC(=O)CNC(=O)CC[C@H](NS(=O)(=O)c1ccc(Cl)c(C(F)(F)F)c1)C(=O)O)C(=O)N[C@H](C(N)=O)C(C)C	7.25	4.35	< 4.00	< 4.00	< 4.00	4.55	< 4.00	4.77	pIC50 [3]: < 4.00
CC(C)C[C@H](NC(=O)CNC(=O)CC[C@H](NS(=O)(=O)c1ccc(Cl)c(C(F)(F)F)c1)C(=O)O)C(=O)N[C@H](C(=O)N1CCC[C@H]1CC(N)=O)C(C)C ({Benzenesulfonyl(4-Cl,3-CF3)-γGlu}-GLV[β3hP]-NH2)	8.00	4.96	< 4.00	4.23	< 4.00	5.54	< 4.00	6.35	Stability [10]: Stable; Stability [11]: Stable; Ratio IC50 [12]: 290; Ratio IC50 [13]: 45
CC(C)C[C@H](NC(=O)CNC(=O)CC[C@H](NS(=O)(=O)c1ccc(Cl)c(C(F)(F)F)c1)C(=O)O)C(=O)N[C@H](C(=O)N1CCC[C@H]1C(N)=O)C(C)C ({Benzenesulfonyl(4-Cl,3-CF3)-γGlu}-GLVP-NH2)	7.72								
CC(C)C[C@H](NC(=O)CNC(=O)CC[C@H](NS(=O)(=O)c1ccc(Cl)c(C(F)(F)F)c1)C(=O)O)C(=O)N[C@H](C(=O)N[C@@H](C)C(N)=O)C(C)C ({Benzenesulfonyl(4-Cl,3-CF3)-γGlu}-GLVA-NH2)	7.80	4.48	< 4.00	< 4.00	< 4.00	4.92	< 4.00	4.96	pIC50 [3]: < 4.00; Stability [10]: Stable; Stability [11]: Stable
CSCC[C@H](NC(=O)[C@H](Cc1ccccc1)NC(=O)CNC(=O)CC[C@H](NS(=O)(=O)c1ccc(Cl)c(C(F)(F)F)c1)C(=O)O)C(N)=O	6.96								
CSCC[C@H](NC(=O)[C@H](C)NC(=O)[C@H](C)NC(=O)CC[C@H](NS(=O)(=O)c1ccc(Cl)c(C(F)(F)F)c1)C(=O)O)C(N)=O	5.17								

Second part, led by results:

pIC50 [1]	pIC50 [2]	pIC50 [4]	pIC50 [5]	pIC50 [6]	pIC50 [7]	pIC50 [8]	pIC50 [9]	SMILES	further results
6.11								CSCC[C@H](NC(=O)[C@H](CC(C)C)NC(=O)[C@H](CC(C)C)NC(=O)CC[C@H](NS(=O)(=O)c1ccc(Cl)c(C(F)(F)F)c1)C(=O)O)C(N)=O	
5.33								CSCC[C@H](NC(=O)[C@H](CC(C)C)NC(=O)[C@H](C)NC(=O)C[C@H](NS(=O)(=O)c1ccc(Cl)c(C(F)(F)F)c1)C(=O)O)C(N)=O	
6.92	4.14	< 4.00	< 4.00	< 4.00	4.70	< 4.00	4.60	CSCC[C@H](NC(=O)[C@H](CC(C)C)NC(=O)CNC(=O)CC[C@H](NS(=O)(=O)c1ccc(Cl)c(C(F)(F)F)c1)C(=O)O)C(N)=O	
6.36	< 4.00	< 4.00	< 4.00	< 4.00	4.40	< 4.00	< 4.00	CSCC[C@H](NC(=O)[C@H](CC(C)C)NC(=O)[C@H](C)NC(=O)CC[C@H](NS(=O)(=O)c1ccc(Cl)c(C(F)(F)F)c1)C(=O)O)C(N)=O	
5.24								CSCC[C@H](NC(=O)[C@H](CC(C)C)NC(=O)[C@H](CO)NC(=O)CC[C@H](NS(=O)(=O)c1ccc(Cl)c(C(F)(F)F)c1)C(=O)O)C(N)=O	
5.89								CSCC[C@H](NC(=O)[C@H](CC(C)C)NC(=O)[C@H](CCC(N)=O)NC(=O)CC[C@H](NS(=O)(=O)c1ccc(Cl)c(C(F)(F)F)c1)C(=O)O)C(N)=O	
5.12								CSCC[C@H](NC(=O)[C@H](CC(C)C)NC(=O)[C@H](CC(N)=O)NC(=O)CC[C@H](NS(=O)(=O)c1ccc(Cl)c(C(F)(F)F)c1)C(=O)O)C(N)=O	
